Data on two molecules can be found in US6420412B2, “Eprosartan dihydate and a process for its production and formulation” (SmithKline Beecham Corporation, priority 1996, dated 2002).

Format in all cases: physicochemical
The nature of series [1]: Moisture uptake and hydrate conversion on storage at high humidity. As for the experimental part: (§1) Eprosartan is anhydrous, and, by itself, is stable at ambient temperature and humidity, as well as at accelerated conditions (30° C./79% RH or 40° C./75% RH for up to 6 months). […] In the former case where the hydrate is obtained by moistening the drug substance, the hydrated form is not stable, and is generally converted back into the anhydrous form during drying.

Series [2] can be described thus: Storage stability of the drug substance. As for the experimental part: as §1
Series [3] can be described thus: Compactibility in the solid dosage form. The settings on record: compared to the corresponding anhydrous form.

For `CCCCc1ncc(/C=C(\Cc2cccs2)C(=O)O)n1Cc1ccc(C(=O)O)cc1` [Eprosartan, (E)-α-[2-n-butyl-1-[(4-carboxyphenyl)methyl]-1H-imidazol-5-yl]methylene-2-thiophenepropionic acid monomethanesulfonate], the “conversion of solid form on storage” value in series [1] (moistened then stored in closed container, or dry powder at relative humidity of 98% or higher, ambient or higher temperatures, 8 days or longer) is “converts to the hydrated form”. Further, the “moisture pick-up at higher humidities” value in series [1] (typically up to 95% RH) was “does not pick up moisture”. Moreover, the “stability at accelerated conditions” value in series [2] (30° C./79% RH or 40° C./75% RH for up to 6 months) was “stable”. Moreover, in series [2] (drug substance by itself, ambient temperature and humidity), the stability result is given as “stable”.
As to `CCCCc1ncc(/C=C(\Cc2cccs2)C(=O)O)n1Cc1ccc(C(=O)O)cc1.CS(=O)(=O)O.O.O` [dihydrate, (E)-α-[2-n-butyl-1-[(4-carboxyphenyl)methyl]-1H-imidazol-5-yl]methylene-2-thiophenepropionic acid monomethanesulfonate dihydrate], the “compactibility in the solid dosage form” value in series [3] is given as “more compactible”. The “stability of hydrate obtained by moistening the drug substance” value in series [2] (no excipient, during drying generally converted back into the anhydrous form) is on record as “not stable”.
